From article PMC11233931, “Remodeling tumor‐associated macrophage for anti‐cancer effects by rational design of irreversible inhibition of mitogen‐activated protein kinase‐activated protein kinase 2” (MedComm, 2024)
Where two headings read alike, the source gives them in different places.

Legend:
Test in all cases: Eurofins kinase selectivity profile against 380 other human recombinant kinases (Table S2)
Format in all cases: biochemical
[1] = biological target: T1, 380 human recombinant protein kinases (Homo sapiens, UniProt Q8IVH8); settings: MAP4K3(h), read-out: Inhibition rate
T1 construct: purchased Eurofins (Celle Lévescault)
T1 sequence (Q8IVH8 1-894): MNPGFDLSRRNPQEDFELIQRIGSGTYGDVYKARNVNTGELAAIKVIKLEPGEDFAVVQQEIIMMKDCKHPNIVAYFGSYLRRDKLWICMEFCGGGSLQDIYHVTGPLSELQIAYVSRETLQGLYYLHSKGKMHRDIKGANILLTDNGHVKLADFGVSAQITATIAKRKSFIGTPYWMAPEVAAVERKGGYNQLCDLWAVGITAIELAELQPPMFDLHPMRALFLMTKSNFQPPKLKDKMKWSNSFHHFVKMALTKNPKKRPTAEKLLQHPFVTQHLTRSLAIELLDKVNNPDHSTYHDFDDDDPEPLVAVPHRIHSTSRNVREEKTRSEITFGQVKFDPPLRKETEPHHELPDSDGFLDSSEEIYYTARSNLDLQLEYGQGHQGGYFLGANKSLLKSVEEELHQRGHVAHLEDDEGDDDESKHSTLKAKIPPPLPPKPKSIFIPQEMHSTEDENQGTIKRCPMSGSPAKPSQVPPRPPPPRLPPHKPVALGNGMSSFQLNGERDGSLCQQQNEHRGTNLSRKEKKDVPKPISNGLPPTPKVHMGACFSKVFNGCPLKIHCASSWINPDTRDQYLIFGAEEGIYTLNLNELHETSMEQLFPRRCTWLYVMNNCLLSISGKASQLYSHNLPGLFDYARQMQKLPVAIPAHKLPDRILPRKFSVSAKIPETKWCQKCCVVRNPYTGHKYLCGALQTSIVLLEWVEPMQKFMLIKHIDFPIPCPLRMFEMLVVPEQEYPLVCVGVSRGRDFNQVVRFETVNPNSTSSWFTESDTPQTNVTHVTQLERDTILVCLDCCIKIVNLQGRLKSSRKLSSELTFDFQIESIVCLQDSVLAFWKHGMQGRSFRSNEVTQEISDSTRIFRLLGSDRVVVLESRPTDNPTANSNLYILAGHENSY
In short: (§1)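 Commercial selectivity screen of the test compound against a panel of 380 human recombinant protein kinases, run by an outside contractor at several compound concentrations to check whether its potency was specific for MK2.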

[2] = biological target: T2, 380 human recombinant protein kinases (Homo sapiens, UniProt Q00526); settings: CDK3/cyclinE(h), read-out: Inhibition rate
T2 construct: purchased Eurofins (Celle Lévescault)
T2 sequence (Q00526 whole entry): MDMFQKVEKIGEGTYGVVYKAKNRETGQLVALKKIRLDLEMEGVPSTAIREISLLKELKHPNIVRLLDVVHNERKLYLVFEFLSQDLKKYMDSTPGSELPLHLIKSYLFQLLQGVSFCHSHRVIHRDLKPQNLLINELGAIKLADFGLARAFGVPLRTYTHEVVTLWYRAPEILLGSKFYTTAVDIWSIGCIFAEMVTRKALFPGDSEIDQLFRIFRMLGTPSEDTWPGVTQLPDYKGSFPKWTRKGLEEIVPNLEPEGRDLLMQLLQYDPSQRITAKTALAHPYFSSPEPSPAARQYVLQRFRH
In short: as §1

[3] = biological target: T3, 380 human recombinant protein kinases (Homo sapiens, UniProt P52333); settings: JAK3(h), read-out: Inhibition rate
T3 construct: purchased Eurofins (Celle Lévescault)
T3 sequence (P52333 1-1124): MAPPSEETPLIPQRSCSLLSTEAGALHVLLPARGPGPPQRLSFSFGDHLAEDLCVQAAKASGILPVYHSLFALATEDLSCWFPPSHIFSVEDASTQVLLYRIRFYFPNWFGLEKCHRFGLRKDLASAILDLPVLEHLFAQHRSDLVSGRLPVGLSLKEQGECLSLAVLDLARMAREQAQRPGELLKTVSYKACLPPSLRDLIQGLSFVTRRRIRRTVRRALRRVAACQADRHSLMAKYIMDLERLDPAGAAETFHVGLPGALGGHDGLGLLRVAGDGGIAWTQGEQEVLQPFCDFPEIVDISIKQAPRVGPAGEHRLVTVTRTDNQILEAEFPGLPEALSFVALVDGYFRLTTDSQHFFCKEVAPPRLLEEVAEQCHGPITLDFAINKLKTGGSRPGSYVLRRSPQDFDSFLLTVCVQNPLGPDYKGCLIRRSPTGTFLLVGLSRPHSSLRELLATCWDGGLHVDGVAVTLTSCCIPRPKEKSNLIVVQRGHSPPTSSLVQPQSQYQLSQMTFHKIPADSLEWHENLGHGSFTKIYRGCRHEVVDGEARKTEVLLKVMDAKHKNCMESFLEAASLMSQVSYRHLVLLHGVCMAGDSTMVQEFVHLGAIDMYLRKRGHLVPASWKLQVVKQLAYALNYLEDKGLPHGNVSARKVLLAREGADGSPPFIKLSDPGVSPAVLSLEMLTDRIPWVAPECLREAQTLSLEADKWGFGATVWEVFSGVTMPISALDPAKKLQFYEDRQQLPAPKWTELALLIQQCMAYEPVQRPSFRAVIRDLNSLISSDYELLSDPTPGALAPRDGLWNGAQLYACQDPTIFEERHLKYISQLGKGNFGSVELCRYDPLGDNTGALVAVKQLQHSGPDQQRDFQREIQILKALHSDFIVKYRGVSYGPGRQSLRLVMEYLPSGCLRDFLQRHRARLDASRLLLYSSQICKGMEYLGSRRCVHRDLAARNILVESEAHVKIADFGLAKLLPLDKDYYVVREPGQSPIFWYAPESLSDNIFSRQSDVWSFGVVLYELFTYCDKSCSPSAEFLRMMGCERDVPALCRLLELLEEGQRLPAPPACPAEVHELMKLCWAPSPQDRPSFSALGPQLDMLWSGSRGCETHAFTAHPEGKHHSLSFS
In short: as §1

[4] = biological target: T4, 380 human recombinant protein kinases (Homo sapiens, UniProt P42336); settings: read-out: Inhibition rate (%); for inhibition at 0.01 µM: 10 nM; for inhibition at 0.1 µM: 100 nM; for inhibition at 1 µM: 1000 nM
T4 construct: purchased Eurofins (Celle Lévescault)
T4 sequence (P42336 whole entry): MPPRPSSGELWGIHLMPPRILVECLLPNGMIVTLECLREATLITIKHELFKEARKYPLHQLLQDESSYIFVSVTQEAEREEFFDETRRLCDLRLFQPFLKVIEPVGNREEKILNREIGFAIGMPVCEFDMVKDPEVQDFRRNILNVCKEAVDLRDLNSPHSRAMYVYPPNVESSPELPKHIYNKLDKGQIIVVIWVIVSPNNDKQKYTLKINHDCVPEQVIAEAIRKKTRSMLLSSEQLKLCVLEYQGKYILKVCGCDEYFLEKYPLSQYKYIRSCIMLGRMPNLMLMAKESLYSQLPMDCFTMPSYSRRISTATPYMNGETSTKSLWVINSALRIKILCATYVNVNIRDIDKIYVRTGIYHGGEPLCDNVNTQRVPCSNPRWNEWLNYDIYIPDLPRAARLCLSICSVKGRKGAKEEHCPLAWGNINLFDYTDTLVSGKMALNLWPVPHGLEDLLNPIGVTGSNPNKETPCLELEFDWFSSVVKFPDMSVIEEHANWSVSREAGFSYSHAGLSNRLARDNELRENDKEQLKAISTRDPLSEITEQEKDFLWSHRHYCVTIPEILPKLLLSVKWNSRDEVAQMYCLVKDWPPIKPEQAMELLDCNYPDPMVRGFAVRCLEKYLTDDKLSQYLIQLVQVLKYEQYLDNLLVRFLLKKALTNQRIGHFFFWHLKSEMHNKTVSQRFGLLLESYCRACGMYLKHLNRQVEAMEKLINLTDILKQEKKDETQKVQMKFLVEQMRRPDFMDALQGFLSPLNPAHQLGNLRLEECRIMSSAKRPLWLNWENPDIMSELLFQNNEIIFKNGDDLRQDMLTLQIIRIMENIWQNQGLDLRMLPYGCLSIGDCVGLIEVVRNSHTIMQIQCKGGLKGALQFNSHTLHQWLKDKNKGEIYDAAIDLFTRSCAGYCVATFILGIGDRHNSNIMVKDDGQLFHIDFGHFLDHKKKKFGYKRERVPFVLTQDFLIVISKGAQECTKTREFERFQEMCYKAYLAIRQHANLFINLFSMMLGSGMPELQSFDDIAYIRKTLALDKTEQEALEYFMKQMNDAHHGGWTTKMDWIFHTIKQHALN
In short: as §1

[5] = biological target: T5, 380 human recombinant protein kinases (Homo sapiens, UniProt P07947); settings: Yes(h), read-out: Inhibition rate (%)
T5 construct: purchased Eurofins (Celle Lévescault)
T5 sequence (P07947 whole entry): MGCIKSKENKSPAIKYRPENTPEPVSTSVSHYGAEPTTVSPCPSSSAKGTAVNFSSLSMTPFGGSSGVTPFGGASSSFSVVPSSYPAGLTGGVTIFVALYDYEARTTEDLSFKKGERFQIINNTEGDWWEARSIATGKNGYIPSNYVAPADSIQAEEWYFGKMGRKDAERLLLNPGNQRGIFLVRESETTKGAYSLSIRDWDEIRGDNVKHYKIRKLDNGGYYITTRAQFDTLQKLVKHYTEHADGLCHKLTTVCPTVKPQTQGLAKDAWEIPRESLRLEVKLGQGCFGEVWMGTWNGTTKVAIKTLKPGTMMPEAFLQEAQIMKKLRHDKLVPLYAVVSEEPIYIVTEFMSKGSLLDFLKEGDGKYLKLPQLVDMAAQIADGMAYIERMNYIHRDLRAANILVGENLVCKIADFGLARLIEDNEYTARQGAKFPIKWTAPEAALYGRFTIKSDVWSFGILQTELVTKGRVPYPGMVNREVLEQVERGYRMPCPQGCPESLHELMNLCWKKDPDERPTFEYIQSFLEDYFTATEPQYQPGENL
In short: as §1

C=CC(=O)Nc1cc(-c2cc(-c3cc4c([nH]3)CCNC4=O)ccn2)ccc1OC(F)(F)F [compound 11]
inhibition at 0.01 µM ([1]; 10 nM): -8% | inhibition at 0.1 µM ([1]; 100 nM): -4% | inhibition at 1 µM ([1]; 1000 nM): 3% | inhibition at 0.01 µM ([2]; 10 nM): -5% | inhibition at 0.1 µM ([2]; 100 nM): -1% | inhibition at 1 µM ([2]; 1000 nM): 0% | inhibition at 0.01 µM ([3]; 10 nM): 8% | inhibition at 0.1 µM ([3]; 100 nM): 5% | inhibition at 1 µM ([3]; 1000 nM): 12% | inhibition at 0.01 µM ([4]; PI3 Kinase (p110α/p65α)(h)): 3% | inhibition at 0.1 µM ([4]; PI3 Kinase (p110α/p65α)(h)): 0% | inhibition at 1 µM ([4]; PI3 Kinase (p110α/p65α)(h)): 1% | inhibition at 0.01 µM ([4]; PI3 Kinase (p110α/p85α)(h)): -1% | inhibition at 0.1 µM ([4]; PI3 Kinase (p110α/p85α)(h)): 0% | inhibition at 1 µM ([4]; PI3 Kinase (p110α/p85α)(h)): -1% | inhibition at 0.01 µM ([5]; 10 nM): -2% | inhibition at 0.1 µM ([5]; 100 nM): 0% | inhibition at 1 µM ([5]; 1000 nM): -3%
